Each structure is given as a SMILES string. “Also recorded” adds a separate entry of the source.

Broadly, the melting point is the temperature of the solid-liquid transition.

Chain of α-glucosidase (P53341 whole entry): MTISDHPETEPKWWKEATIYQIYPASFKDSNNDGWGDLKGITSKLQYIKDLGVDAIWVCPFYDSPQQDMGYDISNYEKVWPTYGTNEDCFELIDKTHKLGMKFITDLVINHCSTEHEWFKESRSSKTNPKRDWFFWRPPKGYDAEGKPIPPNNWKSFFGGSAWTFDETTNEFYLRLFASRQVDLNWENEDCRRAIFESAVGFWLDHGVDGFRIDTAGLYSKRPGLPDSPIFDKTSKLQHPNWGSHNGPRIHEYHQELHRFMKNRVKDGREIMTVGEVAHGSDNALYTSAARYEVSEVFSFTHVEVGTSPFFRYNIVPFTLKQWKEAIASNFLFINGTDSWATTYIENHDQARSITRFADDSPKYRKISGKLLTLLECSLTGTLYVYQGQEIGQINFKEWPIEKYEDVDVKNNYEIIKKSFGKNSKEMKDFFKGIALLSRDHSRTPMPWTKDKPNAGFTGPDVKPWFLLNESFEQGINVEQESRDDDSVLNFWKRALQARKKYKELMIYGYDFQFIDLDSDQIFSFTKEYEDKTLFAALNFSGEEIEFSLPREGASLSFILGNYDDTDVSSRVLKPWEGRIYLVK

One data set has as its target α-glucosidase (Saccharomyces cerevisiae, UniProt P53341). The data set is classed as biochemical. As for the experimental part:
The bioassay was carried out on 96 well-plates (200 μL per well). A solution of the test samples in 10% dimethyl sulfoxide (DMSO) was diluted further to concentrations of 1024, 256, 64, 16, 4, and 1 μg mL^−1. Each concentration of the test samples (10 μL) was incubated at 37 °C with phosphate buffer 100 mM (pH 6.8, 40 μL), α-glucosidase 0.4 U mL^−1 (25 μL), and p-nitrophenyl α-D-glucopyranoside 2.5 mM (25 μL). The reaction was stopped after 30 min by adding 100 μL of 0.1 M Na2CO3. The enzyme activities were measured based on the absorbance at λmax 405 nm of the test samples. […] Percentage inhibition was calculated as follows:[38]α-Glucosidase inhibition (%) = [Abs(control) − Abs(sample)]/Abs(control) × 100%
Regarding `CC(C)=CCC[C@](C)(O)[C@H]1CC[C@]2(C)[C@@H]1CC[C@@H]1[C@@]3(C)CCC(=O)C(C)(C)[C@@H]3CC[C@]12C` [Compound 1, dipterocarpol], the “α-glucosidase inhibition, result in words” value is on record as “weak activity”.
On the same count and under the same terms, the entry for `CC(C)=CCCC(C)(O)C1CCC2(C)C1CCC1C3(C)CCC(=NOC(=O)c4cnc(C)cn4)C(C)(C)C3CCC12C` [Compound 3a, 20(S)-hydroxy dammar-24-ene-3-oximyl-[5-methyl-3,6-diazine-1-carboxylate]] is “no inhibition activity; also recorded: unnoticeable inhibition”; for `CC(C)=CCCC(C)(O)C1CCC2(C)C1CCC1C3(C)CCC(=NOC(=O)c4cc(I)cc(I)c4O)C(C)(C)C3CCC12C` [Compound 3d, 20(S)-hydroxydammar-24-ene-3-oximyl-[2-hydroxy-3,5-diiodobenzoate]] it is “loss of their activity; also recorded: no inhibition activity”.
The same measure, in the same setting: for `CC(C)=CCCC(C)(O)C1CCC2(C)C1CCC1C3(C)CCC(=NOC(=O)c4ccc(F)cc4)C(C)(C)C3CCC12C` [Compound 3g, 20(S)-hydroxydammar-24-ene-3-oximyl-[4-fluorobenzoate]] the value was “no α-glucosidase inhibition; also recorded: no inhibition activity; also recorded: unnoticeable inhibition”.
The same measure, in the same setting: the entry for `CC(C)=CCCC(C)(O)C1CCC2(C)C1CCC1C3(C)CCC(=NOC(=O)c4ccccc4I)C(C)(C)C3CCC12C` [Compound 3h, 20(S)-hydroxydammar-24-ene-3-oximyl-[2-iodobenzoate]] is “loss of their activity; also recorded: no inhibition activity; also recorded: unnoticeable inhibition”.
For `CC(C)=CCCC(C)(O)C1CCC2(C)C1CCC1C3(C)CCC(=NOC(=O)C(C)C)C(C)(C)C3CCC12C` [Compound 3m, 20(S)-hydroxydammar-24-ene-3-oximyl isobutyrate], the “α-glucosidase inhibition, result in words” value is “no inhibition activity; also recorded: unnoticeable inhibition”.
Still for that read-out and setting: for `CC1(C)C(=O)CC[C@@]2(C)C1CC[C@]1(C)C2CCC2[C@@H]([C@@]3(C)CCC(=O)O3)CC[C@]21C` (stereo partly drawn) [Compound 4, 17-[(5α-methyl)-3,4H-furane-2-one]-25,26,27-tris-nor-dammar-3-one] the value was “no inhibition activity; also recorded: unnoticeable inhibition”.

Test system in another data set: not given
On to `CC1(C)C(=O)CC[C@@]2(C)C1CC[C@]1(C)C2CCC2[C@@H]([C@@]3(C)CCC(=O)O3)CC[C@]21C` (stereo partly drawn) [Compound 4, 17-[(5α-methyl)-3,4H-furane-2-one]-25,26,27-tris-nor-dammar-3-one], for which the melting point is 118.4 to 120.3 °C.
Same read-out and setting: the figure for `CC1(C)C2CC[C@]3(C)C(CCC4[C@@H]([C@@]5(C)CCC(=O)O5)CC[C@]43C)[C@@]2(C)CC[C@@H]1O` (stereo partly drawn) [Compound 5, 3β-hydroxy-17-[(5α-methyl)-3,4H-furane-2-one]-25,26,27-tris-nor-dammarane] is 195 to 196 °C; for `CC(=O)O[C@H]1CC[C@@]2(C)C(CC[C@]3(C)C2CCC2[C@@H]([C@@]4(C)CCC(=O)O4)CC[C@]23C)C1(C)C` (stereo partly drawn) [Compound 6a, 17-[(5α-methyl)-3,4H-furane-2-one]-3β-(O-acetyl)-25,26,27-tris-nor-dammarane] it is 248 to 249 °C; for `CCCCC(=O)O[C@H]1CC[C@@]2(C)C(CC[C@]3(C)C2CCC2[C@@H]([C@@]4(C)CCC(=O)O4)CC[C@]23C)C1(C)C` (stereo partly drawn) [Compound 6b, 17-[(5α-methyl)-3,4H-furane-2-one]-3β-(O-pentanoyl)-25,26,27-tris-nor-dammarane] it is 134 to 135 °C.
On the same count and under the same terms, for `CC(C)C(=O)O[C@H]1CC[C@@]2(C)C(CC[C@]3(C)C2CCC2[C@@H]([C@@]4(C)CCC(=O)O4)CC[C@]23C)C1(C)C` (stereo partly drawn) [Compound 6c, 17-[(5α-methyl)-3,4H-furane-2-one]-3β-(O-isobutyryl)-25,26,27-tris-nor-dammarane] the value was 206 to 207 °C; for `CC1(C)C2CC[C@]3(C)C(CCC4[C@@H]([C@@]5(C)CCC(=O)O5)CC[C@]43C)[C@@]2(C)CC[C@@H]1OC(=O)c1ccccc1O` (stereo partly drawn) [Compound 6d, 17-[(5α-methyl)-3,4H-furane-2-one]-3β-(O-salycyloyl)-25,26,27-tris-nor-dammarane], 186 to 187 °C.
Still for that read-out and setting: the figure for `CC1(C)C2CC[C@]3(C)C(CCC4[C@@H]([C@@]5(C)CCC(=O)O5)CC[C@]43C)[C@@]2(C)CC[C@@H]1OC(=O)/C=C/c1ccccc1` (stereo partly drawn) [Compound 6e, 17-[(5α-methyl)-3,4H-furane-2-one]-3β-(O-cinnamoyl)-25,26,27-tris-nor-dammarane] is 236 to 238 °C.

Values taken from publication PMC9043233, “Newly synthesised oxime and lactone derivatives from Dipterocarpus alatus dipterocarpol as anti-diabetic inhibitors: experimental bioassay-based evidence and theoretical computation-based prediction” (RSC Advances, 2021).
